Five compounds from ChEMBL document CHEMBL1201862, “PubChem BioAssay data set” (2004) can be followed below.

The structures appear in SMILES notation.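 A five-concentration, 48-hour dose response in 96-well plates underlies each endpoint, interpolated linearly between surrounding concentrations. GI50 = concentration required for 50% inhibition of growth.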 Activity calls are given as the source filed them. Cut-off read from the data, not from the text of the source: active = GI50 up to about 1.1 µM and inactive = higher.

Among the test systems are DU-145; HCT-15; HL-60; HOP-62; KM12; MDA-MB-435; NCI-H460; NCI/ADR-RES; OVCAR-3; OVCAR-4; OVCAR-5; SF-268; SF-539; SK-OV-3; TK-10; UACC-257; HCC 2998.
Assay in all cases: growth of human tumour cells (NCI), 48 h

For the compound `[N-]=[N+]=Nc1ccc(NCCCCCC(=O)ON2C(=O)CCC2=O)c([N+](=O)[O-])c1`, the GI50 is > 100 µM (inactive) in the experiment with DU-145; over 100 µM in the experiment with HCT-15; 32.5 µM (inactive) in the experiment with HL-60; 72.9 µM (inactive) in the experiment with HOP-62; 46.2 µM (inactive) in the experiment on KM12; 48.1 µM (inactive) with MDA-MB-435. Further, the GI50 is 61.7 µM (inactive) in the experiment with NCI-H460; 31.1 µM (inactive) with NCI/ADR-RES; 54.3 µM (inactive) in the experiment with OVCAR-3; > 100 µM (inactive) in the experiment on OVCAR-4; 44.2 µM (inactive) with OVCAR-5; 39.3 µM (inactive) with SF-268. Also, the GI50 is 30.5 µM (inactive) in the experiment on SF-539, > 100 µM (inactive) in the experiment with SK-OV-3, 42.1 µM (inactive) with TK-10 and > 100 µM (inactive) with UACC-257.

In the case of `Cn1nc(-c2ccccc2NC(=O)C(F)(F)F)c(=O)n(C)c1=S`, the GI50 in the experiment with HCC 2998 is 46.1 µM (inactive); in the experiment on HOP-62, 69.7 µM (inactive); in the experiment with KM12 it was 25.7 µM (inactive); in the experiment on NCI-H460, 23.5 µM (inactive); in the experiment on OVCAR-3 it was 18.5 µM (inactive); with OVCAR-4, 19.9 µM (inactive). The GI50 is 69.3 µM (inactive) with OVCAR-5; 25.8 µM (inactive) in the experiment with SF-268; 29.4 µM (inactive) with SF-539; > 100 µM (inactive) in the experiment with SK-OV-3; 32.3 µM (inactive) in the experiment on TK-10.

As to `c1ccc2c(c1)ccc1cc3cc(NCCCCNc4ccc5nc6c(ccc7ccccc76)cc5c4)ccc3nc12`, the GI50 was 1.29 µM (inactive) with DU-145; 0.701 µM in the experiment on HCT-15; 0.212 µM (active) in the experiment on HOP-62; 0.236 µM (active) in the experiment with KM12; 1.83 µM (inactive) in the experiment on MDA-MB-435; 0.231 µM (active) in the experiment with NCI-H460. The GI50 in the experiment on NCI/ADR-RES is 2.11 µM (inactive); in the experiment with OVCAR-3 it was 1.99 µM (inactive); with OVCAR-4, 2.22 µM (inactive); with OVCAR-5, 0.261 µM (active); with SF-268 it was 1.82 µM (inactive); in the experiment with SF-539, 1.35 µM (inactive). The GI50 is 2.37 µM (inactive) in the experiment with SK-OV-3, 1.64 µM (inactive) with TK-10 and 1.72 µM (inactive) in the experiment with UACC-257.

In the case of `O=C(CSCC(=O)N/N=C\c1cc(Br)cc(Br)c1O)N/N=C\c1cc(Br)cc(Br)c1O`, the GI50 in the experiment on DU-145 was 62.4 µM (inactive); in the experiment with HCT-15, 22.5 µM; in the experiment with HOP-62, 29.9 µM (inactive); in the experiment with KM12 it was 25.4 µM (inactive); with MDA-MB-435, 40.9 µM (inactive); in the experiment on NCI-H460, 44.6 µM (inactive). Also, the GI50 is 29.4 µM (inactive) with NCI/ADR-RES; 17.6 µM (inactive) with OVCAR-3; 14.4 µM (inactive) in the experiment with OVCAR-4; > 100 µM (inactive) in the experiment with OVCAR-5; 11.3 µM (inactive) in the experiment with SF-268; 20 µM (inactive) in the experiment with SF-539. The GI50 in the experiment with SK-OV-3 was 53.5 µM (inactive); in the experiment with TK-10 it was 15.6 µM (inactive); with UACC-257, 23.5 µM (inactive).

For `COc1cccc(/C=N/NC(N)=O)c1O`, the GI50 is > 100 µM (inactive) in the experiment on HCC 2998; over 100 µM with HCT-15; > 100 µM (inactive) in the experiment on HOP-62; > 100 µM (inactive) in the experiment with KM12; > 100 µM (inactive) with NCI-H460; > 100 µM (inactive) in the experiment with OVCAR-3. In addition, the GI50 with OVCAR-4, in the experiment with OVCAR-5, in the experiment with SF-268, in the experiment with SF-539, in the experiment on SK-OV-3 and in the experiment with TK-10 was > 100 µM (inactive) each time. Besides, the GI50 with UACC-257 is > 100 µM (inactive).
